What was measured:
Format in all cases: cell-based
RKO cells = assay: XTT assay for cell viability, RKO cells; conditions: Homo sapiens, 72 h
Outline: (§1)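 RKO and A375 cells seeded at 1000-2000/well overnight, then exposed to compound for 72 h at 37° C., 5% CO2. XTT (1 mg/ml)/PMS (25 μM) added for 2-3 h; absorbance at 450 nm. Growth relative to DMSO control (100%); GI50 from sigmoidal dose-response fit.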

A375 cells = assay: XTT assay for cell viability, A375 cells; conditions: Homo sapiens, A-375, 72 h
Outline: as §1

pERK in A375 cells = assay: In Cell Western (ICW) assay, pERK in A375 cells; conditions: Homo sapiens, A-375, 3 h treatment
Outline: (§2)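 RKO or A375 cells were exposed to compounds for 3 h at 37 °C, then fixed and stained in-cell with antibodies to pERK1/2 (T202/Y204), pS6RP or pAKT T308, followed by a Eu-labelled secondary. Time-resolved fluorescence (340/615 nm) was normalized to Hoechst, and IC50 values were fitted sigmoidally against DMSO as 0% inhibition.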

pAKT (T308) in RKO cells = assay: In Cell Western (ICW) assay, pAKT-T308 in RKO cells; conditions: Homo sapiens, 3 h treatment
Description: Cell lines A375, A2058 and RKO obtained from the ATCC as provided above, were grown, and after attaining ˜80% confluency were trypsinized, centrifuged and resuspended in fresh media. The cells were seeded at the specified density (20,000 to 50,000) in a 96-well format black-well clear bottom plate (Corning) and incubated overnight at 37° C. in a 5% CO2 incubator. The next day, compound dilutions of test compounds were prepared in 100% DMSO followed by dilutions in respective media. Treatment of test compounds was performed for 3 h at 37° C. in 5% CO2 incubator. Following 3 h drug treatment, the conditional media was discarded and the cells were washed once with cPBS (PBS containing 0.1% magnesium chloride hexahydrate and 0.1% anhydrous calcium chloride) and fixed with 4% paraformaldehyde in cPBS for 1 h at rt. After fixing, the cells were given three washes using cPBST (cPBS containing 0.1% Triton™ X-100 reagent) and then blocked using blocking solution (5% skimmed milk powder or 5% BSA prepared in cPBST) for 2 h at rt with shaking at 300 rpm. The cells were again washed thrice with cPBST and incubated with primary antibody phospho-p44/42 MAPK(Erk1/2)(Thr202/204) antibody (Cell Signaling, Catalog # 9101L), phospho S6 ribosomal protein (Cell Signaling, Catalog #4858L), phospho AKT (Thr 308) (Cell Signaling, Catalog #9275) or phospho AKT (Ser 473) (Cell Signaling, Catalog #4060L) in specified dilutions (1:500-1:2500), prepared in respective blocking solutions, in a racker overnight at 4° C. The next day, the cells were washed with 1× Delfia® wash buffer (4×1 wash) and incubated with secondary antibody (Delfia®-Eu-N1 labeled anti-rabbit antibody; PerkinElmer, Catalog #AD0105; dilutions: 1:2000 to 1:6000 in Delfia® assay buffer (PerkinElmer, Catalog #1244-111)) for 2 h at rt in the dark at 300 rpm. The cells were then given four washes with 1× Delfia® wash buffer and incubated with Wallac Delfia® Enhancement solution (100 μL; PerkinElmer, Catalog #1244-105) for 20 min at rt in the dark at 300 rpm. The fluorescence emission was then read at 615 nm with an excitation wavelength of 340 nm using a Victor V5 Fluorometer (Perkin Elmer, US). The cells were then washed once with 1×cPBS and incubated with 100 μL of 0.5 mg/mL of Hoechst 33258 dye prepared in cPBS and read at 460 nm with 355 nm excitation, thereby evaluating the correction factor.
The % inhibition for the test compounds of formula (I) (new chemical entities (NCEs)) was calculated keeping DMSO control as 0% and the IC50 values were determined using sigmoidal dose response curve fit in GraphPad Prism® v5 software.

pS6RP in RKO cells = assay: In Cell Western (ICW) assay, pS6RP in RKO cells; conditions: Homo sapiens, 3 h treatment
Outline: as §2

pERK in RKO cells = assay: In Cell Western (ICW) assay, pERK in RKO cells; conditions: Homo sapiens, 3 h treatment
Outline: as §2

Row | Structure (SMILES) | IC50 (RKO cells) [nM] | IC50 (A375 cells) [nM] | IC50 (pERK in A375 cells) [nM] | IC50 (pAKT (T308) in RKO cells) [nM] | IC50 (pS6RP in RKO cells) [nM] | IC50 (pERK in RKO cells) [nM]
1 | COc1cc(-c2c(F)ccc(NS(=O)(=O)CCCF)c2F)cc2c(N3CCOCC3)nc(-c3ccc(N)nc3)nc12 [Example 79, N-(3-(2-(6-aminopyridin-3-yl)-8-methoxy-4-morpholinoquinazolin-6-yl)-2,4-difluorophenyl)-3-fluoropropane-1-sulfonamide] | 100 to 1000 | 1 to 100 | 1 to 100 | 100 to 1000 | 100 to 1000 | 
2 | Nc1ncc(-c2nc(N3CCOCC3)c3nc(-c4cccc(NS(=O)(=O)CCCF)c4F)ccc3n2)cn1 [Example 87, N-(3-(2-(2-aminopyrimidin-5-yl)-4-morpholinopyrido[3,2-d]pyrimidin-6-yl)-2-fluorophenyl)-3-fluoropropane-1-sulfonamide] | 100 to 1000 | 100 to 1000 | 100 to 1000 | 100 to 1000 | 100 to 1000 | 
3 | Nc1ccc(-c2nc(N3CCOCC3)c3nc(-c4cccc(NS(=O)(=O)CCCF)c4F)ccc3n2)cn1 [Example 88, N-(3-(2-(6-aminopyridin-3-yl)-4-morpholinopyrido[3,2-d]pyrimidin-6-yl)-2-fluorophenyl)-3-fluoropropane-1-sulfonamide] | 100 to 1000 | 100 to 1000 | 100 to 1000 | 100 to 1000 | 100 to 1000 | 100 to 1000
4 | Nc1ccc(-c2nc(N3CCOCC3)c3nc(-c4cccc(NS(=O)(=O)c5cc(F)ccc5F)c4F)ccc3n2)cn1 [Example 92, N-(3-(2-(6-aminopyridin-3-yl)-4-morpholinopyrido[3,2-d]pyrimidin-6-yl)-2-fluorophenyl)-2,5-difluorobenzenesulfonamide] | 1000 to 10000 | 1 to 100 | 1 to 100 | 1000 to 10000 |  | 100 to 1000
5 | Nc1ncc(-c2nc(N3CCOCC3)c3nc(-c4cccc(NS(=O)(=O)c5cc(F)ccc5F)c4F)ccc3n2)cn1 [Example 93, N-(3-(2-(2-aminopyrimidin 5-yl)-4-morpholinopyrido[3,2-d]pyrimidin-6-yl)-2-fluorophenyl)-2,5-difluorobenzenesulfonamide] | 100 to 1000 | 100 to 1000 | 100 to 1000 | 1000 to 10000 |  | 
6 | Nc1cc(C(F)(F)F)c(-c2nc(N3CCOCC3)c3nc(-c4cccc(NS(=O)(=O)CCCF)c4F)ccc3n2)cn1 [Example 94, N-(3-(2-(6-amino-4-(trifluoromethyl)pyridin-3-yl)-4-morpholinopyrido[3,2-d]pyrimidin-6-yl)-2-fluorophenyl)-3-fluoropropane-1-sulfonamide] | 100 to 1000 | 100 to 1000 | 1 to 100 | 100 to 1000 | 100 to 1000 | 1 to 100
7 | Cc1cc(N)ncc1-c1nc(N2CCOCC2)c2nc(-c3cccc(NS(=O)(=O)CCCF)c3F)ccc2n1 [Example 101, N-(3-(2-(6-amino-4-methylpyrtdin-3-yl)-4-morpholinopyrldo[3,2-d]pyrimidin-6-yl)-2-fluorophenyl)-3-fluoropropane-1-sulfonamide] | 100 to 1000 | 100 to 1000 | 1 to 100 | 100 to 1000 | 1 to 100 | 100 to 1000
8 | C[C@H]1COCCN1c1nc(-c2cnc(N)cc2C(F)(F)F)nc2ccc(-c3cccc(NS(=O)(=O)CCCF)c3F)nc12 [Example 108, (S)-N-(3-(2-(6-amino-4-(trifluoromethyl)pyrldin-3-yl)-4-(3-methylmorpholino)pyrido[3,2-d]pyrimidin-6-yl)-2-fluorophenyl)-3-fluoropropane-1-sulfonamide] | 100 to 1000 | 100 to 1000 | 1 to 100 | 1000 to 10000 |  | 100 to 1000
9 | CNc1ccc(-c2nc(N3CCOCC3)c3nc(-c4cccc(NS(=O)(=O)CCCF)c4F)ccc3n2)cn1 [Example 113, 3-fluoro-N-(2-fluoro-3-(2-(6-(methylamino)pyridin-3-yl)-4-morpholinopyrido[3,2-d]pyrimidin-6-yl)phenyl)propane-1-sulfonamide] | 100 to 1000 | 100 to 1000 | 1 to 100 | 1000 to 10000 |  | 

From patent US9499495B2, “Quinazolines and azaquinazolines as dual inhibitors of RAS/RAF/MEK/ERK and PI3K/AKT/PTEN/mTOR pathways” (Asana Biosciences, LLC, priority 2013, dated 2016)
